biological target: interaction between p53 and MDM2 proteins (recombinant GST-tagged MDM2, p53 peptide) (Homo sapiens, UniProt Q00987); test: HTRF assay of inhibition of the p53-MDM2 interaction (GST-MDM2 binding to biotinylated p53 peptide); conditions: 0.02% BSA
Experimental: The ability of the compounds to inhibit the interaction between p53 and MDM2 proteins was measured by an HTRF (homogeneous time-resolved fluorescence) assay in which recombinant GST-tagged MDM2 binds to a peptide that resembles the MDM2-interacting region of p53 (Lane et al.). Binding of GST-MDM2 protein and p53-peptide (biotinylated on its N-terminal end) is registered by the FRET (fluorescence resonance energy transfer) between Europium (Eu)-labeled anti-GST antibody and streptavidin-conjugated Allophycocyanin (APC).
Test is performed in black flat-bottom 384-well plates (Costar) in a total volume of 40 uL containing: 90 nM biotinylate peptide, 160 ng/ml GST-MDM2, 20 nM streptavidin-APC (PerkinElmerWallac), 2 nM Eu-labeled anti-GST-antibody (PerkinElmerWallac), 0.2% bovine serum albumin (BSA), 1 mM dithiothreitol (DTT) and 20 mM Tris-borate saline (TBS) buffer as follows: Add 10 uL of GST-MDM2 (640 ng/ml working solution) in reaction buffer to each well. Add 10 uL diluted compounds (1:5 dilution in reaction buffer) to each well, mix by shaking. Add 20 uL biotinylated p53 peptide (180 nM working solution) in reaction buffer to each well and mix on shaker. Incubate at 37° C. for 1 h. Add 20 uL streptavidin-APC and Eu-anti-GST antibody mixture (6 nM Eu-anti-GST and 60 nM streptavidin-APC working solution) in TBS buffer with 0.2% BSA, shake at room temperature for 30 minutes and read using a TRF-capable plate reader at 665 and 615 nm (Victor 5, Perkin ElmerWallac). If not specified, the reagents were purchased from Sigma Chemical Co.

Sequence of interaction between p53 and MDM2 proteins (recombinant GST-tagged MDM2, p53 peptide) (Q00987 whole entry): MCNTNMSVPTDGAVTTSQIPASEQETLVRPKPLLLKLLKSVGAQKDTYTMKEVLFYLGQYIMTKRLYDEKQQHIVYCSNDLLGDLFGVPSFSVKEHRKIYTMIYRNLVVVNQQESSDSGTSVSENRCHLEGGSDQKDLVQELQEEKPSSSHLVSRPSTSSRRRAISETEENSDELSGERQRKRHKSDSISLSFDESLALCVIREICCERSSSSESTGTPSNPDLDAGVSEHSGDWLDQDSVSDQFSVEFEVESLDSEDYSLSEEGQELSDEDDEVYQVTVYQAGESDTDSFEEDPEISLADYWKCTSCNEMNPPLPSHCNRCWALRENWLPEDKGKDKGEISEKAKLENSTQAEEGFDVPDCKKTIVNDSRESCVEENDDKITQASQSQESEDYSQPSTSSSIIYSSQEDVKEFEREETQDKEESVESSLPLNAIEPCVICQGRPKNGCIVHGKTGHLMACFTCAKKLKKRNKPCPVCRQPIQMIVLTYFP

SMILES | IC50 [nM]
O=C1C[C@@H](c2cccc(Cl)c2)[C@]2(C(=O)Nc3cc(Cl)ccc32)[C@@H](c2ccccc2)N1 (racemic) [Example 14b, (2′R,3R,4′S)-6-chloro-4′-(3-chlorophenyl)-2′-phenylspiro[3H-indole-3,3′-piperidine]-2,6′(1H)-dione] | 440
CCN1C(=O)C[C@@H](c2cccc(Cl)c2)[C@]2(C(=O)Nc3cc(Cl)ccc32)[C@H]1c1ccccc1C (racemic) [Example 26b, (2′R,3R,4′S)-6-chloro-4′-(3-chlorophenyl)-1′-ethyl-2′-(2-methylphenyl)spiro[3H-indole-3,3′-piperidine]-2,6′(1H)-dione] | 490
Cc1ccccc1[C@H]1N(CC(=O)O)C(=O)C[C@@H](c2cccc(Cl)c2)[C@]12C(=O)Nc1cc(Cl)ccc12 (racemic) [Example 31, (2′R,3R,4′S)-6-chloro-4′-(3-chlorophenyl)-1′-[(hydroxycarbonyl)-methyl]-2′-(2-methylphenyl)spiro[3H-indole-3,3′-piperidine]-2,6′(1H)-dione] | 372

Continued, values first:

IC50 [nM] | SMILES
2430 | O=C1C[C@H](C2CCCC2)[C@@]2(C(=O)Nc3cc(Cl)ccc32)[C@H](c2cccc(Cl)c2)N1 (racemic) [Example 5d, (2′S,3S,4′R)-6-chloro-2′-(3-chlorophenyl)-4′-cyclopentylspiro[3H-indole-3,3′-piperidine]-2,6′(1H)-dione]
1810 | C[C@@H]1C(=O)N[C@H](c2cccc(Cl)c2)[C@@]2(C(=O)Nc3cc(Cl)ccc32)[C@@H]1c1cccc(Cl)c1 (racemic) [Example 20, (2′R,3R,4′S,5′S)-6-chloro-2′,4′-bis(3-chlorophenyl)-5′-methylspiro[3H-indole-3,3′-piperidine]-2,6′(1H)-dione]

Reference: patent US7495007B2, “Spiroindolinone derivatives” (Hoffmann-La Roche Inc., priority 2006, dated 2009)
